Test results as given in patent US12077503B2, “Substituted cyclic amides and their use as herbicides” (FMC CORPORATION, priority 2015, dated 2024).

Key:
Format in all cases: in vivo
[1] = system: barnyardgrass (Echinochloa crus-galli); assay: Test G Pre-Emergence Protocol; conditions: Echinochloa crus-galli, pre-emergence, 312 h, evaluated after 13 days
In short: (§1)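 Seeds were sown in standard soil and kept one day in a glasshouse (24/16° C day/night, 14 h light, 65% humidity), then sprayed with compound in acetone/water (50:50) containing 0.5% Tween 20 at 15.625, 62.5 or 250 g/ha. Damage was scored after 13 days (0 = none, 100 = total).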

corn (Zea mays) [2] = assay: Test G Pre-Emergence Protocol; conditions: Zea mays, pre-emergence, 312 h, evaluated after 13 days
In short: as §1

[3] = system: giant foxtail (Setaria faberi); assay: Test G Pre-Emergence Protocol; conditions: Setaria faberi, pre-emergence, 312 h, evaluated after 13 days
In short: as §1

[4] = system: ivy-leaved morning glory (Ipomoea hederacea); assay: Test G Pre-Emergence Protocol; conditions: Ipomoea, pre-emergence, 312 h, evaluated after 13 days
In short: as §1

[5] = system: redroot pigweed (Amaranthus retroflexus); assay: Test G Pre-Emergence Protocol; conditions: Amaranthus retroflexus, pre-emergence, 312 h, evaluated after 13 days
In short: as §1

[6] = system: velvetleaf (Abutilon theophrasti); assay: Test G Pre-Emergence Protocol; conditions: Abutilon theophrasti, pre-emergence, 312 h, evaluated after 13 days
In short: as §1

[7] = system: barnyardgrass (Echinochloa crus-galli); assay: Test G Post-Emergence Protocol; conditions: Echinochloa crus-galli, post-emergence, 312 h
In short: (§2)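 Values are percent visual injury at 13 days after treatment (0 none, 100 total). Treatment was a post-emergence spray at 15.625, 62.5 or 250 g/ha on 8-day-old pot plants kept at 24/16 °C.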

corn (Zea mays) [8] = assay: Test G Post-Emergence Protocol; conditions: Zea mays, post-emergence, 312 h
In short: as §2

[9] = system: giant foxtail (Setaria faberi); assay: Test G Post-Emergence Protocol; conditions: Setaria faberi, post-emergence, 312 h
In short: as §2

[10] = system: ivy-leaved morning glory (Ipomoea hederacea); assay: Test G Post-Emergence Protocol; conditions: Ipomoea, post-emergence, 312 h
In short: as §2

[11] = system: redroot pigweed (Amaranthus retroflexus); assay: Test G Post-Emergence Protocol; conditions: Amaranthus retroflexus, post-emergence, 312 h
In short: as §2

[12] = system: velvetleaf (Abutilon theophrasti); assay: Test G Post-Emergence Protocol; conditions: Abutilon theophrasti, post-emergence, 312 h
In short: as §2

COc1cc([C@@H]2CN(C)C(=O)[C@H]2C(=O)Nc2cccc(F)c2F)ccc1Cl (racemic) [Compound 1474]
pest or weed control at 15.625 g/ha ([1]; 15.625 g ai/ha, read-out: Barnyard grass damage rating (100=total damage to plant; 0=no damage to plant)): 10%
pest or weed control at 62.5 g/ha ([1]; 62.5 g ai/ha, 100=total damage to plant, 0=no damage to plant, read-out: plant damage rating, Barnyardgrass): 70%
pest or weed control at 250 g/ha ([1]; 250 g ai/ha, read-out: Barnyardgrass damage rating (100=total damage to plant; 0=no damage to plant)): 80%
plant injury at 15.625 g/ha (corn (Zea mays) [2]; 15.625 g ai/ha, read-out: Corn damage rating (100=total damage to plant; 0=no damage to plant)): 0%
plant injury at 62.5 g/ha (corn (Zea mays) [2]; 62.5 g ai/ha, 100=total damage to plant, 0=no damage to plant, read-out: plant damage rating, Corn): 0%
plant injury at 250 g/ha (corn (Zea mays) [2]; 250 g ai/ha, read-out: Corn damage rating (100=total damage to plant; 0=no damage to plant)): 40%
pest or weed control at 15.625 g/ha ([3]; 15.625 g ai/ha, read-out: Foxtail, Giant damage rating (100=total damage to plant; 0=no damage to plant)): 50%
pest or weed control at 62.5 g/ha ([3]; 62.5 g ai/ha, 100=total damage to plant, 0=no damage to plant, read-out: plant damage rating, Foxtail, Giant): 80%
pest or weed control at 250 g/ha ([3]; 250 g ai/ha, read-out: Foxtail, Giant damage rating (100=total damage to plant; 0=no damage to plant)): 90%
pest or weed control at 15.625 g/ha ([4]; 15.625 g ai/ha, read-out: Morning-glory, Ivy-leaved damage rating (100=total damage to plant; 0=no damage to plant)): 10%
pest or weed control at 62.5 g/ha ([4]; 62.5 g ai/ha, 100=total damage to plant, 0=no damage to plant, read-out: plant damage rating, Morningglory, Ivy-leaved): 0%
pest or weed control at 250 g/ha ([4]; 250 g ai/ha, read-out: Morningglory, Ivy-leaved damage rating (100=total damage to plant; 0=no damage to plant)): 10%
pest or weed control at 15.625 g/ha ([5]; 15.625 g ai/ha, read-out: Pigweed, Redroot damage rating (100=total damage to plant; 0=no damage to plant)): 0%
pest or weed control at 62.5 g/ha ([5]; 62.5 g ai/ha, 100=total damage to plant, 0=no damage to plant, read-out: plant damage rating, Pigweed, Redroot): 0%
pest or weed control at 250 g/ha ([5]; 250 g ai/ha, read-out: Pigweed, Redroot damage rating (100=total damage to plant; 0=no damage to plant)): 20%
pest or weed control at 15.625 g/ha ([6]; 15.625 g ai/ha, read-out: Velvetleaf damage rating (100=total damage to plant; 0=no damage to plant)): 0%
pest or weed control at 62.5 g/ha ([6]; 62.5 g ai/ha, 100=total damage to plant, 0=no damage to plant, read-out: plant damage rating, Velvetleaf): 0%
pest or weed control at 250 g/ha ([6]; 250 g ai/ha, read-out: Velvetleaf damage rating (100=total damage to plant; 0=no damage to plant)): 0%
pest or weed control at 15.625 g/ha ([7]; 15.625 g ai/ha, evaluated after 13 days (100=total damage to plant; 0=no damage to plant), read-out: Barnyardgrass damage rating): 20%
pest or weed control at 62.5 g/ha ([7]; 62.5 g ai/ha, evaluated after 13 days, read-out: Barnyardgrass damage rating (100=total damage to plant; 0=no damage to plant)): 50%
pest or weed control at 250 g/ha ([7]; 250 g ai/ha, evaluated after 13 days, read-out: damage to plant, Barnyardgrass (100=total damage to plant; 0=no damage to plant)): 60%
plant injury at 15.625 g/ha (corn (Zea mays) [8]; 15.625 g ai/ha, evaluated after 13 days (100=total damage to plant; 0=no damage to plant), read-out: Corn damage rating): 10%
plant injury at 62.5 g/ha (corn (Zea mays) [8]; 62.5 g ai/ha, evaluated after 13 days, read-out: Corn damage rating (100=total damage to plant; 0=no damage to plant)): 30%
plant injury at 250 g/ha (corn (Zea mays) [8]; 250 g ai/ha, evaluated after 13 days, read-out: damage to plant, Corn (100=total damage to plant; 0=no damage to plant)): 40%
pest or weed control at 15.625 g/ha ([9]; 15.625 g ai/ha, evaluated after 13 days (100=total damage to plant; 0=no damage to plant), read-out: Foxtail, Giant damage rating): 60%
pest or weed control at 62.5 g/ha ([9]; 62.5 g ai/ha, evaluated after 13 days, read-out: Foxtail, Giant damage rating (100=total damage to plant; 0=no damage to plant)): 70%
pest or weed control at 250 g/ha ([9]; 250 g ai/ha, evaluated after 13 days, read-out: damage to plant, Foxtail, Giant (100=total damage to plant; 0=no damage to plant)): 70%
pest or weed control at 15.625 g/ha ([10]; 15.625 g ai/ha, evaluated after 13 days (100=total damage to plant; 0=no damage to plant), read-out: Morningglory, Ivy-leaved damage rating): 40%
pest or weed control at 62.5 g/ha ([10]; 62.5 g ai/ha, evaluated after 13 days, read-out: Morningglory, Ivy-leaved damage rating (100=total damage to plant; 0=no damage to plant)): 50%
pest or weed control at 250 g/ha ([10]; 250 g ai/ha, evaluated after 13 days, read-out: damage to plant, Morningglory, Ivy-leaved (100=total damage to plant; 0=no damage to plant)): 50%
pest or weed control at 15.625 g/ha ([11]; 15.625 g ai/ha, evaluated after 13 days (100=total damage to plant; 0=no damage to plant), read-out: Pigweed, Redroot damage rating): 30%
pest or weed control at 62.5 g/ha ([11]; 62.5 g ai/ha, evaluated after 13 days, read-out: Pigweed, Redroot damage rating (100=total damage to plant; 0=no damage to plant)): 0%
pest or weed control at 250 g/ha ([11]; 250 g ai/ha, evaluated after 13 days, read-out: damage to plant, Pigweed, Redroot (100=total damage to plant; 0=no damage to plant)): 30%
pest or weed control at 15.625 g/ha ([12]; 15.625 g ai/ha, evaluated after 13 days (100=total damage to plant; 0=no damage to plant), read-out: Velvetleaf damage rating): 10%
pest or weed control at 62.5 g/ha ([12]; 62.5 g ai/ha, evaluated after 13 days, read-out: Velvetleaf damage rating (100=total damage to plant; 0=no damage to plant)): 0%
pest or weed control at 250 g/ha ([12]; 250 g ai/ha, evaluated after 13 days, read-out: damage to plant, Velvetleaf (100=total damage to plant; 0=no damage to plant)): 20%
